{"source": "patent US20220175682A1", "about": "“Siremadlin Succinate” (Novartis AG, priority 2019, published 2022)", "key": {"[1]": {"test": "Particle size distribution by laser light diffraction (LLD)", "assay_type": "physicochemical", "text": "Values are given in micrometer, measurements done by laser light diffraction (LLD)."}, "[2]": {"test": "Behaviour of co-crystal in aqueous media", "assay_type": "physicochemical"}}, "data": [{"smiles": "COc1ncc(-c2nc3c(n2C(C)C)[C@H](c2ccc(Cl)cc2)N(c2cc(Cl)cn(C)c2=O)C3=O)c(OC)n1", "note": "[HDM201-BBA, (6S)-5-(5-Chloro-1-methyl-2-oxo-1,2-dihydropyridin-3-yl)-6-(4-chlorophenyl)-2-(2,4-dimethoxypyrimidin-5-yl)-1-(propan-2-yl)-5,6-dihydropyrrolo[3,4-d]imidazol-4(1H)-one]", "values": [{"measurement": "particle size range X90(LLD) found suitable for direct encapsulation", "setting": "[1]", "value": "10-200 micrometer"}, {"measurement": "stability of co-crystal in aqueous media", "setting": "[2]", "value": "can disproportionate into the free form in aqueous media"}]}]}
